According to patent US20150105252A1, “SUBSTITUTED PYRAZOLES AS HERBICIDES” (E I DU PONT DE NEMOURS AND COMPANY, priority 2013, published 2015):

Legend:
barnyardgrass [1] = experiment: Test A preemergence; format: in vivo, Echinochloa crus-galli; conditions: preemergence; for Barnyardgrass plant response rating (0 to 100 scale, 0 is no effect, 100 is complete control): visual injury approx. 10 days after treatment
Method in brief: (§1)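 Visual injury ratings, 0 = no effect to 100 = complete control, taken about 10 days after treatment against untreated controls. Test chemicals, in a non-phytotoxic surfactant-containing solvent, were sprayed onto soil preemergence or onto one- to two-leaf plants (2–10 cm) postemergence, in loam–sand soil under greenhouse conditions.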

Italian ryegrass [2] = experiment: Test A preemergence; format: in vivo, Lolium multiflorum; conditions: for Italian Ryegrass plant response rating (0 to 100 scale): visual injury approx. 10 days after treatment
From the text: (§2) Seeds of plant species selected from barnyardgrass (Echinochloa crus-galli), kochia (Kochia scoparia), common ragweed (Ambrosia elation), Italian ryegrass (Lolium multiflorum), crabgrass, large (large crabgrass, Digitaria sanguinalis), foxtail, giant (giant foxtail, Setaria faberii), morningglory (Ipomoea spp.), pigweed (redroot pigweed, Amaranthus retroflexus), velvetleaf (Abutilon theophrasti), wheat (Triticum aestivum), and corn (Zea mays) were planted into a blend of loam soil and sand and treated preemergence with a directed soil spray using test chemicals formulated in a non-phytotoxic solvent mixture which included a surfactant.
(§3) At the same time, plants selected from these crop and weed species and also blackgrass (Alopecurus myosuroides), and galium (catchweed bedstraw, Galium aparine) were planted in pots containing the same blend of loam soil and sand and treated with postemergence applications of test chemicals formulated in the same manner. Plants ranged in height from 2 to 10 cm and were in the one- to two-leaf stage for the postemergence treatment. Treated plants and untreated controls were maintained in a greenhouse for approximately 10 days, after which time all treated plants were compared to untreated controls and visually evaluated for injury. Plant response ratings, summarized in Table A, are based on a 0 to 100 scale where 0 is no effect and 100 is complete control. A dash (-) response means no test result.

barnyardgrass [3] = experiment: Test B flood; format: in vivo, Echinochloa crus-galli; conditions: 250 g ai/ha, visual rating on 0 to 100 scale (0 no effect, 100 complete control), 13 to 15 days
Method in brief: (§4)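 Each compound is applied to the floodwater of pots holding 2-leaf seedlings, water standing 3 cm over the soil throughout. Plants stay in a greenhouse 13 to 15 days before visual scoring against controls from 0 (no effect) to 100 (complete control).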

Italian ryegrass [4] = experiment: Test A postemergence; format: in vivo, Lolium multiflorum
From the text: as §2, §3

wheat = experiment: Test A postemergence; format: in vivo, Triticum aestivum
Method in brief: as §1

common ragweed [5] = experiment: Test A preemergence; format: in vivo, Ambrosia elation; conditions: for Common Ragweed plant response rating (0 to 100 scale): visual injury approx. 10 days after treatment
From the text: as §2, §3

sedge, umbrella = experiment: Test B flood; format: in vivo, Cyperus difformis; conditions: 250 g ai/ha, visual rating on 0 to 100 scale (0 no effect, 100 complete control), 13 to 15 days
Method in brief: as §4

common ragweed [6] = experiment: Test A postemergence; format: in vivo, Ambrosia elation
From the text: as §2, §3

galium = experiment: Test A postemergence; format: in vivo, Galium aparine
From the text: as §2, §3

foxtail, giant [7] = experiment: Test A postemergence; format: in vivo, Setaria faberii
Method in brief: as §1

ducksalad = experiment: Test B flood; format: in vivo, Heteranthera limosa; conditions: 250 g ai/ha, visual rating on 0 to 100 scale (0 no effect, 100 complete control), 13 to 15 days
Method in brief: as §4

barnyardgrass [8] = experiment: Test A postemergence; format: in vivo, Echinochloa crus-galli
Method in brief: as §1

pigweed [9] = experiment: Test A preemergence; format: in vivo, Amaranthus retroflexus; conditions: preemergence; for Pigweed plant response rating (0 to 100 scale): visual injury approx. 10 days after treatment
Method in brief: as §1

rice = experiment: Test B flood; format: in vivo, Oryza sativa; conditions: 250 g ai/ha, visual rating on 0 to 100 scale (0 no effect, 100 complete control), 13 to 15 days
Method in brief: as §4

blackgrass = experiment: Test A postemergence; format: in vivo, Alopecurus myosuroides
From the text: as §2, §3

foxtail, giant [10] = experiment: Test A preemergence; format: in vivo, Setaria faberii; conditions: preemergence; for Foxtail, Giant plant response rating (0 to 100 scale): visual injury approx. 10 days after treatment
Method in brief: as §1

corn = experiment: Test A postemergence; format: in vivo, Zea mays
Method in brief: as §1

pigweed [11] = experiment: Test A postemergence; format: in vivo, Amaranthus retroflexus
Method in brief: as §1

kochia [12] = experiment: Test A postemergence; format: in vivo, Kochia scoparia
From the text: as §2, §3

kochia [13] = experiment: Test A preemergence; format: in vivo, Kochia scoparia; conditions: for Kochia plant response rating (0 to 100 scale): visual injury approx. 10 days after treatment
From the text: as §2, §3

[14] = 125 g ai/ha, visual injury, 0 to 100 scale, approx. 10 days
[15] = 500 g ai/ha, visual injury after approx. 10 days, 0 to 100 scale (0 no effect, 100 complete control)
[16] = Postemergence, 500 g ai/ha, 0 to 100 scale (0 no effect, 100 complete control)
[17] = postemergence, 125 g ai/ha, about 10 days, visual rating on 0 to 100 scale (0 no effect, 100 complete control)
[18] = Postemergence, 125 g ai/ha, 0 to 100 scale, 0 no effect, 100 complete control

Structure (SMILES)	Barnyardgrass plant response rating (barnyardgrass [1]; [15])	Italian Ryegrass plant response rating (Italian ryegrass [2]; [15])	Plant response rating, Barnyardgrass (barnyardgrass [3])	Italian Ryegrass plant response rating (Italian ryegrass [4]; [16])	Wheat plant response rating (wheat; [16])	Common Ragweed plant response rating (common ragweed [5]; [15])	Plant response rating, Sedge, Umbrella (sedge, umbrella)	Common Ragweed plant response rating (common ragweed [6]; [16])	Common Ragweed plant response rating (common ragweed [6]; [17])	Galium plant response rating (galium; [16])	Foxtail, Giant plant response rating (foxtail, giant [7]; [16])	Foxtail, Giant plant response rating (foxtail, giant [7]; [17])	Plant response rating, Ducksalad (ducksalad)	Barnyardgrass plant response rating (barnyardgrass [8]; [16])	Plant response rating, Rice (rice)	Blackgrass plant response rating (blackgrass; [16])	Foxtail, Giant plant response rating (foxtail, giant [10]; [15])	Corn plant response rating (corn; [16])	Pigweed plant response rating (pigweed [11]; [16])	Kochia plant response rating (kochia [12]; [16])	other results
CCc1cc(C(=O)NCC(F)(F)F)nn1Cc1cc(C(F)(F)F)no1 [Compound 123]	100	30	20	30	10	50	60	40	10	80	90	0	60	60	10	50	100	60	100	90	Barnyardgrass plant response rating (barnyardgrass [1]; [14]): 0; Italian Ryegrass plant response rating (Italian ryegrass [2]; [14]): 0; Italian Ryegrass plant response rating (Italian ryegrass [4]; [17]): 10; Wheat plant response rating (wheat; [17]): 0; Common Ragweed plant response rating (common ragweed [5]; [14]): 10; Galium plant response rating (galium; [17]): 10; Barnyardgrass plant response rating (barnyardgrass [8]; [17]): 0; Pigweed plant response rating (pigweed [9]; [14]): 70; Pigweed plant response rating (pigweed [9]; [15]): 100; Blackgrass plant response rating (blackgrass; [17]): 10; Foxtail, Giant plant response rating (foxtail, giant [10]; [14]): 20; Corn plant response rating (corn; [17]): 20; Pigweed plant response rating (pigweed [11]; [17]): 70; Kochia plant response rating (kochia [12]; [17]): 50; Kochia plant response rating (kochia [13]; [14]): 10; Kochia plant response rating (kochia [13]; [15]): 100
CCc1cc(C(=O)NC2CC2)nn1Cc1cc(OC(F)F)nn1C [Compound 211]	70	20	0	30	20	40	0	20	–	70	60	–	0	50	0	50	80	40	100	90	Barnyardgrass plant response rating (0 to 100 scale, 0 is no effect, 100 is complete control) (barnyardgrass [1]; 125 g ai/ha): 0; Italian Ryegrass plant response rating (0 to 100 scale) (Italian ryegrass [2]; 125 g ai/ha): 0; Italian Ryegrass plant response rating (Italian ryegrass [4]; [18]): 0; Wheat plant response rating (wheat; [18]): 0; Common Ragweed plant response rating (0 to 100 scale) (common ragweed [5]; 125 g ai/ha): 0; Common Ragweed plant response rating (common ragweed [6]; [18]): 0; Galium plant response rating (galium; [18]): 20; Foxtail, Giant plant response rating (foxtail, giant [7]; [18]): 0; Barnyardgrass plant response rating (barnyardgrass [8]; [18]): 0; Pigweed plant response rating (0 to 100 scale) (pigweed [9]; 125 g ai/ha): 50; Blackgrass plant response rating (blackgrass; [18]): 0; Foxtail, Giant plant response rating (0 to 100 scale) (foxtail, giant [10]; 125 g ai/ha): 0; Corn plant response rating (corn; [18]): 30; Pigweed plant response rating (pigweed [11]; [18]): 70; Kochia plant response rating (kochia [12]; [18]): 80; Kochia plant response rating (0 to 100 scale) (kochia [13]; 125 g ai/ha): 50
CCONC(=O)c1cc(CC)n(Cc2cc(OC(F)F)nn2C)n1 [Compound 207]	90	20	0	50	20	40	0	30	0	80	60	0	0	80	0	60	20	60	100	60	Barnyardgrass plant response rating (0 to 100 scale, 0 is no effect, 100 is complete control) (barnyardgrass [1]; 125 g ai/ha): 0; Italian Ryegrass plant response rating (0 to 100 scale) (Italian ryegrass [2]; 125 g ai/ha): 0; Italian Ryegrass plant response rating (Italian ryegrass [4]; [18]): 0; Wheat plant response rating (wheat; [18]): 10; Common Ragweed plant response rating (0 to 100 scale) (common ragweed [5]; 125 g ai/ha): 0; Galium plant response rating (galium; [18]): 40; Barnyardgrass plant response rating (barnyardgrass [8]; [17]): 0; Pigweed plant response rating (0 to 100 scale) (pigweed [9]; 125 g ai/ha): 50; Blackgrass plant response rating (blackgrass; [17]): 0; Foxtail, Giant plant response rating (0 to 100 scale) (foxtail, giant [10]; 125 g ai/ha): 0; Corn plant response rating (corn; [17]): 30; Pigweed plant response rating (pigweed [11]; [18]): 60; Kochia plant response rating (kochia [12]; [18]): 30; Kochia plant response rating (0 to 100 scale) (kochia [13]; 125 g ai/ha): 30
